Data reported in patent US20180028982A1, “CONTAINER WITH BIOFILM FORMATION-INHIBITING MICROORGANISMS IMMOBILIZED THEREIN AND MEMBRANE WATER TREATMENT APPARATUS USING THE SAME” (SNU R&DB FOUNDATION, priority 2010, published 2018).

Tested on: AI-2 quorum sensing mechanism
Assay: Inhibition of AI-2 quorum sensing, bioluminescence of Vibrio harveyi BB170 after reaction with Vibrio harveyi BB152 samples
Type: cell-based
Settings: farnesol 800 μM on Vibrio harveyi BB152, reaction for 90 minutes, versus no farnesol (Control)
Source text: The effect of inhibition of quorum sensing for certain microorganisms (bacteria) for water treatment by farnesol secreted by the biofilm formation-inhibiting microorganisms, i.e., Candida albicans is thought to be attributed to the inhibition of quorum sensing mechanism using AI-2 signal molecules, which was indirectly assessed by means of Vibrio harveyi BB152, a bacteria producing only AI-2, and Vibrio harveyi BB170, bacteria allowing bioluminescence by specifically accepting only AI-2. Particularly, Vibrio harveyi BB152 producing only AI-2 signal molecules was inoculated in an AB medium (Autoinducer Bioassay medium, Tega et al., 2011) and cultivated to a certain degree of optical density (O.D.600) of 0.1-0.3. Farnesol was injected to attain final concentration of 800 μM (and no farnesol was injected for its comparison), each sample was taken after reaction for 90 minutes, and the each sample was reacted with Vibrio harveyi BB170 to measure bioluminescence. As a result, the bioluminescence of Vibrio harveyi BB170 was decreased by about 42 percents for the case of […] (designated as “Control”) when compared to the case of injecting the farnesol (see FIG. 18).

## CC(C)=CCCC(C)=CCCC(C)=CCO [Farnesol, farnesol]
  decrease of bioluminescence of Vibrio harveyi BB170: about 42 percents
